Laboratory results from patent US6355799B1, “Substituted benzene compounds, process for their preparation, and herbicidal and defoliant compositions containing them” (ISK Americas Incorporated, priority 1997, dated 2002).

Assays:
Type in all cases: in vivo
[1] = tested on: barnyardgrass (Echinochloa crus-galli, ECHCG); assay: Pre-emerge test, greenhouse herbicide activity screening; details: Echinochloa crus-galli, pre-emergence, 336 h, phytotoxicity rating 0-100, 14 days after application, read-out: Pre-emerge Herbicidal Activity ECHCG; for pest or weed control at 63 g/ha: 63 g ai/ha; for pest or weed control at 250 g/ha: 250 g ai/ha
Method in brief: (§1)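 Rating: 0–100 visual injury, 14 DAA. Application: acetone, 187 l/ha, 15–1000 g ai/ha, flat-fan track sprayer with nozzle 40–45 cm above soil or canopy. Post-emerge runs used 0.25% v/v surfactant on 2–3 leaf plants.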

[2] = tested on: green foxtail (Setaria viridis, SETVI); assay: as above; details: Setaria viridis, pre-emergence, 336 h, phytotoxicity rating 0-100, 14 days after application, read-out: Pre-emerge Herbicidal Activity SETVI; for pest or weed control at 63 g/ha: 63 g ai/ha; for pest or weed control at 250 g/ha: 250 g ai/ha
Method in brief: as §1

[3] = tested on: ivyleaf morningglory (Ipomoea hederacea, IPOHE); assay: as above; details: Ipomoea, pre-emergence, 336 h, phytotoxicity rating 0-100, 14 days after application, read-out: Pre-emerge Herbicidal Activity IPOHE; for pest or weed control at 63 g/ha: 63 g ai/ha; for pest or weed control at 250 g/ha: 250 g ai/ha
Method in brief: as §1

[4] = tested on: johnsongrass (Sorghum halepense, SORHA); assay: as above; details: Sorghum halepense, pre-emergence, 336 h, phytotoxicity rating 0-100, 14 days after application, read-out: Pre-emerge Herbicidal Activity SORHA; for pest or weed control at 63 g/ha: 63 g ai/ha; for pest or weed control at 250 g/ha: 250 g ai/ha
Method in brief: as §1

[5] = tested on: lambsquarters (Chenopodium album, CHEAL); assay: as above; details: Chenopodium album, pre-emergence, 336 h, phytotoxicity rating 0-100, 14 days after application, read-out: Pre-emerge Herbicidal Activity CHEAL; for pest or weed control at 63 g/ha: 63 g ai/ha; for pest or weed control at 250 g/ha: 250 g ai/ha
Method in brief: as §1

[6] = tested on: large crabgrass (Digitaria sanguinalis, DIGSA); assay: as above; details: Digitaria sanguinalis, pre-emergence, 336 h, phytotoxicity rating 0-100, 14 days after application, read-out: Pre-emerge Herbicidal Activity DIGSA; for pest or weed control at 63 g/ha: 63 g ai/ha; for pest or weed control at 250 g/ha: 250 g ai/ha
Method in brief: as §1

[7] = tested on: sicklepod (Cassia obtusifolia, CASOB); assay: as above; details: Senna obtusifolia, pre-emergence, 336 h, phytotoxicity rating 0-100, 14 days after application, read-out: Pre-emerge Herbicidal Activity CASOB; for pest or weed control at 63 g/ha: 63 g ai/ha; for pest or weed control at 250 g/ha: 250 g ai/ha
Method in brief: as §1

[8] = tested on: velvetleaf (Abutilon theophrasti, ABUTH); assay: as above; details: Abutilon theophrasti, pre-emergence, 336 h, phytotoxicity rating 0-100, 14 days after application, read-out: Pre-emerge Herbicidal Activity ABUTH; for pest or weed control at 63 g/ha: 63 g ai/ha; for pest or weed control at 250 g/ha: 250 g ai/ha
Method in brief: as §1

[9] = tested on: barnyardgrass (Echinochloa crus-galli, ECHCG); assay: Post-emerge test, greenhouse herbicide activity screening; details: post-emerge, 14 days after application, rating scale 0-100
Method in brief: as §1

[10] = tested on: green foxtail (Setaria viridis, SETVI); assay: as above; details: post-emerge, 14 days after application, rating scale 0-100
Method in brief: as §1

[11] = tested on: ivyleaf morningglory (Ipomoea hederacea, IPOHE); assay: as above; details: post-emerge, 14 days after application, rating scale 0-100
Method in brief: as §1

[12] = tested on: johnsongrass (Sorghum halepense, SORHA); assay: as above; details: post-emerge, 14 days after application, rating scale 0-100
Method in brief: as §1

[13] = tested on: lambsquarters (Chenopodium album, CHEAL); assay: as above; details: post-emerge, 14 days after application, rating scale 0-100
Method in brief: as §1

[14] = tested on: sicklepod (Cassia obtusifolia, CASOB); assay: as above; details: post-emerge, 14 days after application, rating scale 0-100
Method in brief: as §1

[15] = tested on: velvetleaf (Abutilon theophrasti, ABUTH); assay: as above; details: post-emerge, 14 days after application, rating scale 0-100
Method in brief: as §1

| SMILES | pest or weed control at 63 g/ha [1] [%] | pest or weed control at 250 g/ha [1] [%] | pest or weed control at 63 g/ha [2] [%] | pest or weed control at 250 g/ha [2] [%] | pest or weed control at 63 g/ha [3] [%] | pest or weed control at 250 g/ha [3] [%] | pest or weed control at 63 g/ha [4] [%] | pest or weed control at 250 g/ha [4] [%] | pest or weed control at 63 g/ha [5] [%] | pest or weed control at 250 g/ha [5] [%] | pest or weed control at 63 g/ha [6] [%] | pest or weed control at 250 g/ha [6] [%] | pest or weed control at 63 g/ha [7] [%] | pest or weed control at 250 g/ha [7] [%] | pest or weed control at 63 g/ha [8] [%] | pest or weed control at 250 g/ha [8] [%] | phytotoxicity rating ECHCG ([9]; 63 g ai/ha) | phytotoxicity rating ECHCG ([9]; 250 g ai/ha) | phytotoxicity rating SETVI ([10]; 63 g ai/ha) | phytotoxicity rating SETVI ([10]; 250 g ai/ha) | also measured |
| --- | --- | --- | --- | --- | --- | --- | --- | --- | --- | --- | --- | --- | --- | --- | --- | --- | --- | --- | --- | --- | --- |
| CNC(=O)N(C(=O)NC)c1c(OC)c(Cl)cc(F)c1-n1c(=O)cc(C(F)(F)F)n(C)c1=O [Compound 3-1, 3-[2-bis(methylaminocarbonyl)amino-4-chloro-6-fluoro-3-methoxyphenyl]-1-methyl-6-trifluoromethyl-2,4(1H, 3H)-pyrimidinedione] | 0 | 0 | 0 | 0 | 0 | 0 | 0 | 0 | 20 | 80 | 0 | 0 | 0 | 0 | 0 | 20 | 0 | 0 | 0 | 0 | phytotoxicity rating IPOHE ([11]; 63 g ai/ha): 0; phytotoxicity rating IPOHE ([11]; 250 g ai/ha): 30; phytotoxicity rating SORHA ([12]; 63 g ai/ha): 0; phytotoxicity rating SORHA ([12]; 250 g ai/ha): 0; phytotoxicity rating CHEAL ([13]; 63 g ai/ha): 0; phytotoxicity rating CHEAL ([13]; 250 g ai/ha): 60; phytotoxicity rating CASOB ([14]; 63 g ai/ha): 0; phytotoxicity rating CASOB ([14]; 250 g ai/ha): 0; phytotoxicity rating ABUTH ([15]; 63 g ai/ha): 0; phytotoxicity rating ABUTH ([15]; 250 g ai/ha): 0 |
| COc1c(Cl)cc(F)c(-n2c(=O)cc(C(F)(F)F)n(C)c2=O)c1NC(N)=O [Compound 3-26, 3-(2-aminocarbonylamino-4-chloro-6-fluoro-3-methoxyphenyl)-1-methyl-6-trifluoromethyl-2,4(1H, 3H)-pyrimidinedione] | 0 | 30 | 0 | 85 | 50 | 100 | 0 | 50 | 80 | 90 | 0 | 80 | 40 | 90 | 75 | 100 | 0 | 0 | 0 | 0 | phytotoxicity rating IPOHE ([11]; 63 g ai/ha): 60; phytotoxicity rating IPOHE ([11]; 250 g ai/ha): 90; phytotoxicity rating SORHA ([12]; 63 g ai/ha): 0; phytotoxicity rating SORHA ([12]; 250 g ai/ha): 0; phytotoxicity rating CHEAL ([13]; 63 g ai/ha): 50; phytotoxicity rating CHEAL ([13]; 250 g ai/ha): 60; phytotoxicity rating CASOB ([14]; 63 g ai/ha): 20; phytotoxicity rating CASOB ([14]; 250 g ai/ha): 60; phytotoxicity rating ABUTH ([15]; 63 g ai/ha): 60; phytotoxicity rating ABUTH ([15]; 250 g ai/ha): 60 |
